One data set has as its system EGFR− HEK293 cells. Nature of the data set: XTT cell viability / cytotoxicity, HEK293 cells. In kind it is cell-based. The settings on record: 6 h pre-incubation, wash; for effect on EGFR− HEK-293 cells: further incubation, in words; for IC50: HEK293, XTT. The procedure:
(§1) Cell proliferation in the presence of P6-SN38 was evaluated using a commercial XTT assay kit (Enhanced Cell Counting Kit 8 (WST-8/CCK8); Elabscience, Houston, TX, USA). A total of 10^4 cells per well were seeded in 96-well plates and incubated overnight in complete RPMI growth medium. After washing, the cells were cultured in 100 µL of fresh medium containing varying concentrations of free SN38 or PDC for 3 h and 6 h (pre-incubation). Following this, the cells were washed again and incubated for an additional 24, 48, and 72 h. The XTT reagent was then added to each well, and the plate was incubated for 2 h at 37 °C. For cytotoxicity analysis, absorbance was measured at 450 nm and 630 nm using a TECAN Infinite M200 ELISA reader (Citrine Solutions, Oranit, Israel). All assays were performed in triplicate, and each experiment was repeated three times.
(§2) Figure 2 Cell viability after 6 h of pre-incubation of EGFR+ H1299 (A) and EGFR− HEK293 (B) cell lines with P6-SN38 and SN38. H1299 and HEK293 cells were cultured in a 96-well plate and pre-incubated with six different concentrations (0.5, 2.5, 5, 10, 15, and 25 μM) of P6-SN38 or SN38 for 6 h, washed out, and incubated additionally for 24 h, 48 h, and 72 h. Cell viability was assessed using an XTT assay, with the viability of untreated control cells set at 100%. The viability of treated cells was expressed as a percentage relative to the control. Data are presented as the mean ± standard deviation (SD).
On the technique in general: Formazan colour is commonly taken as a measure of viable cells.

For another data set, the system named is EGFR+ H1299 cells. Nature of the data set: XTT cell viability / cytotoxicity, H1299 cells. The format is cell-based. The conditions noted are these: 6 h pre-incubation, wash. The procedure:
as §1, §2

The subject of another data set is H1299 (EGFR+) tumor. Nature of the data set: In vivo tumor growth inhibition, H1299 (EGFR+) xenograft. Also on record: species or system NOD/SCID (nude) mice. The settings on record: 3 times, N = 4. The procedure: (§3) Animal protocols were approved by the Institutional Animal Care and Use Committee at Ariel University. NOD/SCID (nude) mice were injected with H1299 in the right flank and K562 cells in the left flank (10^6 cells each), so that each mouse developed dual H1299 and K562 xenografts.
(§4) When tumors reached~50 mm^3, mice were injected via tail vein (i.v.).
(§5) The mice’s weight and tumor volumes were measured every 2 days. The tumor sizes were measured by using the hands-on digital caliper method, and the tumor volumes were calculated according to the Formula (1). Tumor volume (mm^3) = 0.5 × Tumor Length × Tumor Width^2(1)
(§6) The resected tumors are shown in (C). N = 4 in each group. * p < 0.05, ** p < 0.005, *** p < 0.001, **** p < 0.0001.

Data set [1] can be described thus: Mice body weight during efficacy study. In kind it is in vivo, NOD/SCID (nude) mice. The settings on record: i.v. once a week, 3 times; P6-SN38 10 mg/kg, Erbitux 10 mg/kg, free SN38 3 mg/kg; 18 days; N = 4. Here is the method: as §4, §5, §6
Data set [2] relates to H1299 cells. Nature of the data set: Apoptosis assay, Annexin V-FITC/PI flow cytometry. The conditions noted are these: 2.5 µM, 6 h pre-treatment, wash, mean ± SD; for apoptotic rate / late-stage apoptosis rate: 24 h; for apoptosis / late apoptosis rate: 48 h. In kind it is cell-based. The procedure: H1299 cells were seeded at the concentration of 5 × 10^4 cells/mL in the RPMI 1640 growth medium and incubated in 6-well plates at 37 °C under 5% CO2. The next day, the medium was removed, and P6-SN38, or free SN38 (2.5 µM), in fresh medium was added and incubated for 6 h. Then, the medium was removed by washing out, fresh medium was added, and the plates were incubated for an additional 24 and 48 h. The cells were collected with 0.25% trypsin/EDTA solution and washed with PBS twice at 1500 rpm for 5 min. After that, Annexin-FITC (5 µM) and propidium Iodide (PI, 5 µM) were added (both from Abcam, Cambridge, UK). The cells were incubated for 15 min in the dark, and the samples (2 × 10^4 cells) were analyzed by flow cytometry.
SN38, a potent topoisomerase I inhibitor, disrupts DNA replication, leading to cell cycle arrest and apoptosis. To evaluate and compare the effects of peptide-bound SN38 (P6-SN38) and free SN38 on DNA damage and cell cycle distribution (Section 3.4), H1299 cells were pre-treated with both compounds at a concentration of 2.5 µM for 6 h, followed by washing and continued incubation for 24 or 48 h (Figure 3).
Figure 3 Apoptosis of H1299 cells estimated through cell survival percentage by binding with annexin V-FITC. H1299 cells were pre-incubated with P6-SN38 and SN38 as described in Section 2.6. Cells were stained with annexin and PI and analyzed by flow cytometry; * p < 0.05, *** p < 0.001, **** p < 0.0005. “ns” means non-significant.

In data set [3] the test system is H1299 cells. Briefly: Cell cycle analysis, PI flow cytometry. In kind it is cell-based. The conditions noted are these: 2.5 µM, 6 h pre-treatment, in words. The procedure:
Cell cycle analysis was conducted using a cell cycle detection kit (Biotopped, Huangshan, China). H1299 cells were seeded in 5 × 10^4 cells/mL concentration in the complete growth medium. (RPMI 1640) Incubation was performed in 6-well plates at 37 °C under 5% CO2. The next day, the medium was removed, and the fresh medium containing P6-SN38 or free SN38 (2.5 µM) was added and incubated for 6 h. Then, the medium was removed by washing, a fresh medium was added, and the cells were incubated for an additional 24 and 48 h. Then, the cells were trypsinized and washed with PBS twice at 1500 rpm for 5 min. Cells were fixed in 66% ethanol for 2 h. Then, cells were incubated with 0.2 mL buffer solution containing PI (25 μL) and RNase A (10 μL) after being rinsed with cold PBS (according to the manufacturer’s protocol). Finally, the cell cycle was analyzed by Beckman CytoFLEX FCM (Bio-Rad Laboratories, Inc., Rishon Le Zion, Israel).
To investigate whether the observed growth inhibition and apoptosis were mediated by cell cycle arrest, we examined the effects of P6-SN38 and free SN38 on cell cycle progression in NSCLC H1299 cells. The cells were pre-treated with the compounds for 6 h, followed by an additional 24 or 48 h incubation period (Figure 4A,B).
Figure 4 Cell cycle arrest analysis of treatment with SN38 and P6-SN38. Cell cycle distribution of H1299 cells detected by flow cytometry after 24 h (A) and 48 h (B) treatment with SN38 and P6-SN38 at 2.5 µM. A total of 1 × 10^6 cells were pre-incubated with P6-SN38 or SN38 for 6 h, followed by additional incubation for 24 h and 48 h. The cells were then stained with propidium iodide (PI) and analyzed by flow cytometry (C). The data in A and B are presented as the mean ± SD (n = 3). “ns” means non-significant. * p < 0.05, *** p < 0.001, **** p < 0.0005. “ns” means non-significant. TEXT PRINTED IN THE PICTURE: (C) 01-H1299_P6_24h-B9.fcs: %G1 : 6.76; %S : 52.1; %G2 : 40.6 | (C) 01-H1299_P6_48h-D8.fcs: %G1 : 9.76; %S : 47.2; %G2 : 40.6 | (C) 01-H1299_SN_24h-A9.fcs: %G1 : 0; %S : 39.4; %G2 : 54.0 | (C) 01-H1299_SN_48h-C8.fcs: %G1 : 9.66; %S : 61.4; %G2 : 27.8 DOUBTS OF THE COPYIST ABOUT THIS PICTURE: 01-H1299_P6_24h-B9.fcs, %G1: small print, 6.76 could be 8.76 or 6.78 / 01-H1299_P6_24h-B9.fcs, %G2: small print, 40.6 could be 40.8 / 01-H1299_P6_48h-D8.fcs, %G1: small print, 9.76 could be 9.78 / 01-H1299_P6_48h-D8.fcs, %G2: small print, 40.6 could be 40.8 / 01-H1299_SN_24h-A9.fcs, %S: small print, 39.4 could be 38.4 / 01-H1299_SN_48h-C8.fcs, %G1: small print, 9.66 could be 9.68 or 9.86 / 01-H1299_SN_48h-C8.fcs, %G2: small print, 27.8 could be 27.6 / The untreated samples (01-H1299_24h_UT-A6.fcs, 01-H1299_UT_48h-C6.fcs) were left out because they stand for no substance. The RMSD values were left out as fit statistics.
For orientation: A flow cytometer gives signals particle by particle.

The test system of a further data set is K562 (EGFR−) tumor. Briefly: In vivo tumor growth inhibition, K562 (EGFR−) xenograft. The conditions noted are these: 10 mg/kg i.v. once a week, 3 times. Also noted: species or system NOD/SCID (nude) mice. Here is the method:
as §3, §4, §5
Figure 6 In vivo effect of P6-SN38 conjugate in NSCLC model (10 mg/kg, once a week). […] The resected tumors are shown in (C). N = 4 in each group. * p < 0.05, ** p < 0.005, *** p < 0.001, **** p < 0.0001.

Positions of bridges follow the written chain, without caps; N, C: chain ends. Residues, ends and D or L forms follow the SMILES beside them. *: point of attachment. X1 = CCc1c2c(nc3ccc(O)cc13)-c1cc3c(c(=O)n1C2)COC(=O)[C@@]3(CC)OC(=O)CCC(=O)*; GABA = NCCCC(=O)O Bounds are passed on as bounds.

Consider `CCc1c2c(nc3ccc(O)cc13)-c1cc3c(c(=O)n1C2)COC(=O)[C@]3(O)CC` [SN38], for which the “effect on EGFR− HEK-293 cells” value with EGFR− HEK293 cells is reported as “active in both cell lines”. For the same compound, the half-maximal inhibitory concentration (IC50) in the data set on EGFR− HEK293 cells (48 h incubation) came to 4400 nM; with EGFR− HEK293 cells (72 h incubation) it was 2700 nM; with EGFR+ H1299 cells (48 h incubation) it was 800 nM; in the data set on EGFR+ H1299 cells (72 h incubation) it was 500 nM. Moreover, the “effect on tumor growth, in words” value in the data set on H1299 (EGFR+) tumor (i.v. once a week, Erbitux 10 mg/kg, free SN38 3 mg/kg, 18 days) is “non-specific tumor reduction”. The “mice weight loss, in words” value in data set [1] is “significant weight loss”. In the data set on H1299 cells [2], the apoptotic rate is reported as 16.3 ± 6.4%. Moreover, the late-stage apoptosis rate in the data set on H1299 cells [2] is given as 15.2 ± 6.8%. Moreover, the apoptosis with H1299 cells [2] was 19.27 ± 5.11%. In addition, in the data set with H1299 cells [2], the late apoptosis rate is reported as 26.80 ± 14.90%. The “cell cycle phase of arrest” value in the data set with H1299 cells [3] (24 h) is given as “G2/M phase arrest”; with H1299 cells [3] (48 h) it was “S/G2 phase arrest”.

In the case of `CCc1c2c(nc3ccc(O)cc13)-c1cc3c(c(=O)n1C2)COC(=O)[C@@]3(CC)OC(=O)CCC(=O)NCCCC(=O)N[C@H]1CSSC[C@@H](C(N)=O)NC(=O)[C@H]([C@@H](C)CC)NC(=O)[C@H](Cc2ccc(O)cc2)NC(=O)[C@H](CO)NC(=O)CNC(=O)[C@@H]2CCCN2C(=O)[C@H](C(C)C)NC(=O)[C@H](Cc2c[nH]cn2)NC1=O` [P6-SN38] ({X1-GABA}-CHVPGSYIC-NH2; disulfide 1-9), the “effect on EGFR− HEK-293 cells” value with EGFR− HEK293 cells was “nearly no effect”. Moreover, the IC50 in the data set with EGFR− HEK293 cells (48 h incubation) is > 50000 nM; in the data set on EGFR− HEK293 cells (72 h incubation), > 50000 nM; in the data set on EGFR+ H1299 cells (48 h incubation) it was 2500 nM; in the data set with EGFR+ H1299 cells (72 h incubation) it was 900 nM. For the same compound, the H1299 tumor eradication result in the data set on H1299 (EGFR+) tumor (10 mg/kg i.v. once a week, day 18) is “eradicated completely in 3 out of 4 mice”. Also, in data set [1], the “mice weight loss, in words” value is recorded as “minimal weight loss”. Moreover, the apoptotic rate in the data set on H1299 cells [2] is on record as 12.9 ± 4.2%. Further, in the data set on H1299 cells [2], the late-stage apoptosis rate amounted to 14.1 ± 7.3%. Further, the apoptosis in the data set on H1299 cells [2] worked out at 21.48 ± 9.90%. For the same compound, in the data set on H1299 cells [2], the late apoptosis rate came to 25.32 ± 10.00%. Moreover, the “effect on growth of K562 (EGFR−) tumors, in words” value with K562 (EGFR−) tumor (18 days) is listed as “did not affect the growth”. The compound further showed a K562 tumor volume with K562 (EGFR−) tumor (day 18, initial ~50 mm^3, control 1772 ± 265, N = 4) of 1522 ± 561 mm^3. Moreover, the “cell cycle phase of arrest” value in the data set on H1299 cells [3] (24 h) was “both the S and G2/M phases”; in the data set on H1299 cells [3] (48 h) it was “S/G2 phase arrest”.

By IC50 is commonly meant the concentration needed to halve the response being measured. Higher therefore signals a need for much substance.

The record behind these values is article PMC11676734, “Novel Cyclic Peptide–Drug Conjugate P6-SN38 Toward Targeted Treatment of EGFR Overexpressed Non-Small Cell Lung Cancer” (Pharmaceutics, 2024).
